Assay results reported in the supplement of paper PMC4932681.

Assays:
BT-474 [1] = test: drug sensitivity score (DSS) (DSS (dimensionless)); higher = more sensitive; extreme values may be limits of the assay; conditions: 72 h
Description: (§1)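 FIMM FO2B library drugs were tested at 5 concentrations (10,000-fold range) for 72 h, with CellTiter-Glo viability normalised to DMSO and benzethonium chloride controls. The Drug Sensitivity Score (DSS) is computed from the fitted logistic dose-response curve (area-based; 0 = inactive). Resistant lines and the 'in 1µM tamoxifen' arms were tested in 1 µM 4-OH-tamoxifen.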

ZR-75-1 Tam2 [2] = test: as above; conditions: 4-OH-tamoxifen in medium 1 µM; 72 h
Description: as §1

T-47D Tam1 [3] = test: as above; conditions: 4-OH-tamoxifen in medium 1 µM; 72 h
Description: as §1

T-47D [4] = test: as above; conditions: 72 h
Description: as §1

ZR-75-1 Tam1 [5] = test: as above; conditions: 4-OH-tamoxifen in medium 1 µM; 72 h
Description: as §1

MCF-7 Tam1 [6] = test: as above; conditions: 4-OH-tamoxifen in medium 1 µM; 72 h
Description: as §1

BT-474 Tam2 [7] = test: as above; conditions: 4-OH-tamoxifen in medium 1 µM; 72 h
Description: as §1

T-47D Tam2 [8] = test: as above; conditions: 4-OH-tamoxifen in medium 1 µM; 72 h
Description: as §1

MCF-7 [9] = test: as above; conditions: 72 h
Description: as §1

ZR-75-1 [10] = test: as above; conditions: 72 h
Description: as §1

BT-474 Tam1 [11] = test: as above; conditions: 4-OH-tamoxifen in medium 1 µM; 72 h
Description: as §1

BT-474 [12] = test: relative IC50 (midpoint of fitted logistic curve, plateau may be below 50% inhibition; CellTiter-Glo viability); higher = less potent; conditions: 72 h
Description: (§2)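 FIMM FO2B library drugs were plated at 5 concentrations spanning a 10,000-fold range in 384-well plates. Cells were incubated for 72 h at 37 °C and viability was read by CellTiter-Glo, normalised to DMSO (0% inhibition) and 100 µM benzethonium chloride (100% inhibition). IC50 values come from logistic dose-response fits (Breeze pipeline). Tamoxifen-resistant lines and the 'in 1µM tamoxifen' parental arms were tested in medium with 1 µM 4-OH-tamoxifen.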

ZR-75-1 Tam1 [13] = test: as above; conditions: 4-OH-tamoxifen in medium 1 µM; 72 h
Description: as §2

BT-474 Tam2 [14] = test: as above; conditions: 4-OH-tamoxifen in medium 1 µM; 72 h
Description: as §2

ZR-75-1 [15] = test: as above; conditions: 4-OH-tamoxifen in medium 1 µM; 72 h
Description: as §2

BT-474 Tam1 [16] = test: as above; conditions: 4-OH-tamoxifen in medium 1 µM; 72 h
Description: as §2

BT-474 [17] = test: viability inhibition at highest dose (% inhibition); higher = more growth inhibition; conditions: 72 h
Outline: (§3)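 Breast cancer cell lines and their resistant derivatives were seeded into 384-well plates containing library drugs at five concentrations across a 10 000-fold range, with resistant lines kept in medium with 1 μM of the selecting drug. After 72 h at 37 °C, CellTiter-Glo viability was read on a PHERAstar and normalised to vehicle-only and positive controls. Logistic dose–response fits in the Breeze pipeline gave drug sensitivity score, relative IC50 (curve midpoint) and top-dose inhibition.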

ZR-75-1 Tam2 [18] = test: as above; conditions: 4-OH-tamoxifen in medium 1 µM; 72 h
Outline: as §3

T-47D Tam1 [19] = test: as above; conditions: 4-OH-tamoxifen in medium 1 µM; 72 h
Outline: as §3

T-47D [20] = test: as above; conditions: 72 h
Outline: as §3

ZR-75-1 Tam1 [21] = test: as above; conditions: 4-OH-tamoxifen in medium 1 µM; 72 h
Outline: as §3

MCF-7 Tam1 [22] = test: as above; conditions: 4-OH-tamoxifen in medium 1 µM; 72 h
Outline: as §3

BT-474 Tam2 [23] = test: as above; conditions: 4-OH-tamoxifen in medium 1 µM; 72 h
Outline: as §3

T-47D Tam2 [24] = test: as above; conditions: 4-OH-tamoxifen in medium 1 µM; 72 h
Outline: as §3

MCF-7 [25] = test: as above; conditions: 72 h
Outline: as §3

ZR-75-1 [26] = test: as above; conditions: 72 h
Outline: as §3

BT-474 Tam1 [27] = test: as above; conditions: 4-OH-tamoxifen in medium 1 µM; 72 h
Outline: as §3

relative IC50 (BT-474 [12]; 4-OH-tamoxifen in medium 0 µM) [µM] | relative IC50 (BT-474 [12]; 4-OH-tamoxifen in medium 1 µM) [µM] | relative IC50 (BT-474 Tam2 [14]) [µM] | relative IC50 (BT-474 Tam1 [16]) [µM] | Structure (SMILES) | drug sensitivity score (BT-474 [1]; 4-OH-tamoxifen in medium 0 µM) | drug sensitivity score (BT-474 [1]; 4-OH-tamoxifen in medium 1 µM) | drug sensitivity score (ZR-75-1 Tam2 [2]) | drug sensitivity score (T-47D Tam1 [3]) | drug sensitivity score (T-47D [4]; 4-OH-tamoxifen in medium 0 µM) | drug sensitivity score (T-47D [4]; 4-OH-tamoxifen in medium 1 µM) | drug sensitivity score (ZR-75-1 Tam1 [5]) | drug sensitivity score (MCF-7 Tam1 [6]) | drug sensitivity score (BT-474 Tam2 [7]) | drug sensitivity score (T-47D Tam2 [8]) | drug sensitivity score (MCF-7 [9]; 4-OH-tamoxifen in medium 0 µM) | drug sensitivity score (MCF-7 [9]; 4-OH-tamoxifen in medium 1 µM) | drug sensitivity score (ZR-75-1 [10]; 4-OH-tamoxifen in medium 0 µM) | drug sensitivity score (ZR-75-1 [10]; 4-OH-tamoxifen in medium 1 µM) | drug sensitivity score (BT-474 Tam1 [11]) | relative IC50 (ZR-75-1 Tam1 [13]) [µM] | relative IC50 (ZR-75-1 [15]) [µM] | viability inhibition at highest dose (BT-474 [17]; 4-OH-tamoxifen in medium 0 µM) | viability inhibition at highest dose (BT-474 [17]; 4-OH-tamoxifen in medium 1 µM) | viability inhibition at highest dose (ZR-75-1 Tam2 [18]) | viability inhibition at highest dose (T-47D Tam1 [19]) | viability inhibition at highest dose (T-47D [20]; 4-OH-tamoxifen in medium 0 µM) | viability inhibition at highest dose (T-47D [20]; 4-OH-tamoxifen in medium 1 µM) | viability inhibition at highest dose (ZR-75-1 Tam1 [21]) | viability inhibition at highest dose (MCF-7 Tam1 [22]) | viability inhibition at highest dose (BT-474 Tam2 [23]) | viability inhibition at highest dose (T-47D Tam2 [24]) | viability inhibition at highest dose (MCF-7 [25]; 4-OH-tamoxifen in medium 0 µM) | viability inhibition at highest dose (MCF-7 [25]; 4-OH-tamoxifen in medium 1 µM) | viability inhibition at highest dose (ZR-75-1 [26]; 4-OH-tamoxifen in medium 0 µM) | viability inhibition at highest dose (ZR-75-1 [26]; 4-OH-tamoxifen in medium 1 µM) | viability inhibition at highest dose (BT-474 Tam1 [27])
3.57 | 3.67 | 3.91 | 3.12 | COc1cc2nccc(Oc3ccc(NC(=O)Nc4cc(C)on4)c(Cl)c3)c2cc1OC [Tivozanib  (AV-951)] | 1.25 | 3.61 | 0 | 0.968 | 0.499 | 0.378 | 0 | 0.0468 | 1.74 | 0.444 | 0.0979 | 0.0672 | 0.0461 | 0 | 4.02 | > 10 | > 10 | – | – | – | – | – | – | – | – | – | – | – | – | – | – | –
– | – | – | – | CC[C@]1(O)C[C@H]2CN(CCc3c([nH]c4ccccc34)[C@@](C(=O)OC)(c3cc4c(cc3OC)N(C=O)[C@H]3[C@@](O)(C(=O)OC)[C@H](OC(C)=O)[C@]5(CC)C=CCN6CC[C@]43[C@@H]65)C2)C1 [Vincristine] (drug 10000 nM) | – | – | – | – | – | – | – | – | – | – | – | – | – | – | – | – | – | 47.4 | 83.8 | 35.9 | 68.8 | 16.5 | 31.2 | 29.2 | 12.1 | 84.9 | 59 | 56.6 | 54.4 | 28.7 | 28.5 | 93.7
– | – | – | – | CCC1=C[C@@H]2CN(C1)Cc1c([nH]c3ccccc13)[C@@](C(=O)OC)(c1cc3c(cc1OC)N(C)[C@H]1[C@@](O)(C(=O)OC)[C@H](OC(C)=O)[C@]4(CC)C=CCN5CC[C@]31[C@@H]54)C2 [Vinorelbine (tartrate)] (drug 10000 nM) | – | – | – | – | – | – | – | – | – | – | – | – | – | – | – | – | – | 46.9 | 94 | 29.9 | 59.6 | 6.97 | 31.1 | 29.4 | 6.83 | 93.8 | 63 | 49.1 | 55.8 | 26.2 | 36.3 | 95.6
– | – | – | – | CS(=O)(=O)c1ccc(C(=O)Nc2ccc(Cl)c(-c3ccccn3)c2)c(Cl)c1 [Vismodegib] (drug 10000 nM) | – | – | – | – | – | – | – | – | – | – | – | – | – | – | – | – | – | 2.54 | 9.28 | 10.7 | -0.759 | 3.38 | 6.47 | 5.76 | 10.9 | 6.56 | 3.9 | 8.35 | 5.18 | -1.58 | 4.37 | 18.7
– | – | – | – | CC[C@@H]1C(=O)N(C)c2cnc(Nc3ccc(C(=O)N[C@H]4CC[C@H](N5CCN(CC6CC6)CC5)CC4)cc3OC)nc2N1C(C)C [Volasertib (BI 6727)] (drug 1000 nM) | – | – | – | – | – | – | – | – | – | – | – | – | – | – | – | – | – | 13.2 | 25.5 | 18.7 | 24.6 | 30.8 | -1.17 | 18.7 | 0.498 | 9.62 | 21.4 | 24.2 | 24.7 | 7.01 | 16.1 | 26
– | – | – | – | O=C(CCCCCCC(=O)Nc1ccccc1)NO [Vorinostat] (drug 10000 nM) | – | – | – | – | – | – | – | – | – | – | – | – | – | – | – | – | – | 76.5 | 92.9 | 37.8 | 58.5 | 87.5 | 88.9 | 38.9 | 23.1 | 86.8 | 41.9 | 83.5 | 80.9 | 37.5 | 32.9 | 91.2
– | – | – | – | Oc1nc(-c2ccc(C(F)(F)F)cc2)nc2c1CSCC2 [XAV-939] (drug 10000 nM) | – | – | – | – | – | – | – | – | – | – | – | – | – | – | – | – | – | 2.3 | -20.3 | 12.7 | 22.1 | -0.891 | 1.95 | 3.25 | -5.47 | 10.1 | -6.24 | 7.77 | 11.1 | 5.02 | 3.5 | 9.15
– | – | – | – | COCC[n+]1c2c(n(Cc3cnccn3)c1C)C(=O)c1ccccc1C2=O [YM155] (drug 10000 nM) | – | – | – | – | – | – | – | – | – | – | – | – | – | – | – | – | – | 99 | 100 | 95.8 | 96.1 | 98.1 | 98.6 | 99.6 | 98.9 | 98.6 | 94.1 | 99.8 | 99.1 | 96 | 98 | 99.4
– | – | – | – | O=P(O)(O)C(O)(Cn1ccnc1)P(=O)(O)O [Zoledronic acid] (drug 10000 nM) | – | – | – | – | – | – | – | – | – | – | – | – | – | – | – | – | – | -0.0303 | -3.42 | -9.06 | -5.82 | -11.4 | -6.56 | -0.251 | -6.7 | -6.19 | 1.06 | -12.6 | -12.2 | -6.71 | -4.06 | 2.75
